Source: ChEMBL document CHEMBL5352409, “Design, synthesis, and pharmacological evaluation of 2-(1-(1,3,4-thiadiazol-2-yl)piperidin-4-yl)ethan-1-ol analogs as novel glutaminase 1 inhibitors” (Eur J Med Chem, 2022)
Calls of active or inactive are those of the source. The rule behind the calls is not given here.

Key:
[1] = AUC(0 to t) in rat at 3 mg/kg, iv; type: ADME, organism-based; design: dose 3 mg/kg, route iv; conditions: in vivo
A549 [2] = assay: Induction of apoptosis in human A549 cells assessed as late apoptotic cells at 5 uM incubated for 48 hrs by annexin V-FITC and propidium iodide based flow cytometry analysis (Rvb =9.696%); type: functional
A549 [3] = assay: Inhibition of colony formation in human A549 cells at 2 to 8 uM; type: functional, cell-based; conditions: dose 2-8 µM
[4] = Oral bioavailability in rat at 5 mg/kg; type: ADME, organism-based; conditions: in vivo
A549 [5] = assay: Antiproliferative activity against human A549 cells assessed as reduction in cell viability; type: functional, cell-based
HCT-116 [6] = assay: Inhibition of colony formation in human HCT-116 cells at 2 to 8 uM; type: functional, cell-based; conditions: dose 2-8 µM
HCT-116 [7] = assay: Antitumor activity against human HCT-116 cells xenografted in mouse model assessed as reduction in tumor cells at 100 mg/kg administered via oral gavage for 28 days; type: functional, organism-based; conditions: time 28.0 day
A549 [8] = assay: Induction of apoptosis in human A549 cells assessed as early apoptotic cells at 5 uM incubated for 48 hrs by annexin V-FITC and propidium iodide based flow cytometry analysis (Rvb =12.289%); type: functional
[9] = AUC(0 to t) in rat at 5 mg/kg, iv; type: ADME, organism-based; design: dose 5 mg/kg, route iv; conditions: in vivo
HCT-116 [10] = assay: Antitumor activity against human HCT-116 cells xenografted in mouse model assessed as tumor growth inhibition at 100 mg/kg once daily via oral gavage administered for 28 days relative to control; type: functional; design: scale not given: the % may be the effect or the level left; conditions: time 28 day
A549 [11] = assay: Induction of apoptosis in human A549 cells assessed as late apoptotic cells at 10 uM incubated for 48 hrs by annexin V-FITC and propidium iodide based flow cytometry analysis (Rvb =9.696%); type: functional
in vivo [12] = conditions: rat, iv, 5 mg/kg
[13] = Cmax in rat at 5 mg/kg, iv; type: ADME, organism-based; design: dose 5 mg/kg, route iv; conditions: in vivo
A549 [14] = assay: Antitumor activity against human A549 cells xenografted in mouse model assessed as tumor growth inhibition at 100 mg/kg once daily via oral gavage administered for 28 days relative to control; type: functional; design: scale not given: the % may be the effect or the level left; conditions: time 28 day
HCT-116 [15] = assay: cells; conditions: Homo sapiens
[16] = AUC(0 to t) in rat at 5 mg/kg, po; type: ADME, organism-based; design: dose 5 mg/kg, route po; conditions: in vivo
A549 [17] = assay: Induction of apoptosis in human A549 cells assessed as early apoptotic cells at 1 uM incubated for 48 hrs by annexin V-FITC and propidium iodide based flow cytometry analysis (Rvb =12.289%); type: functional
A549 [18] = assay: Induction of apoptosis in human A549 cells assessed as early apoptotic cells at 10 uM incubated for 48 hrs by annexin V-FITC and propidium iodide based flow cytometry analysis (Rvb =12.289%); type: functional
[19] = Cmax in rat at 5 mg/kg, po; type: ADME, organism-based; design: dose 5 mg/kg, route po; conditions: in vivo
A549 [20] = assay: Induction of apoptosis in human A549 cells assessed as late apoptotic cells at 1 uM incubated for 48 hrs by annexin V-FITC and propidium iodide based flow cytometry analysis (Rvb =9.696%); type: functional
in vivo [21] = conditions: rat, po, 5 mg/kg
[22] = molecular target: T1, Glutaminase kidney isoform, mitochondrial (Homo sapiens, UniProt O94925); assay: Inhibition of GLS1 (unknown origin)
T1 sequence (O94925 whole entry): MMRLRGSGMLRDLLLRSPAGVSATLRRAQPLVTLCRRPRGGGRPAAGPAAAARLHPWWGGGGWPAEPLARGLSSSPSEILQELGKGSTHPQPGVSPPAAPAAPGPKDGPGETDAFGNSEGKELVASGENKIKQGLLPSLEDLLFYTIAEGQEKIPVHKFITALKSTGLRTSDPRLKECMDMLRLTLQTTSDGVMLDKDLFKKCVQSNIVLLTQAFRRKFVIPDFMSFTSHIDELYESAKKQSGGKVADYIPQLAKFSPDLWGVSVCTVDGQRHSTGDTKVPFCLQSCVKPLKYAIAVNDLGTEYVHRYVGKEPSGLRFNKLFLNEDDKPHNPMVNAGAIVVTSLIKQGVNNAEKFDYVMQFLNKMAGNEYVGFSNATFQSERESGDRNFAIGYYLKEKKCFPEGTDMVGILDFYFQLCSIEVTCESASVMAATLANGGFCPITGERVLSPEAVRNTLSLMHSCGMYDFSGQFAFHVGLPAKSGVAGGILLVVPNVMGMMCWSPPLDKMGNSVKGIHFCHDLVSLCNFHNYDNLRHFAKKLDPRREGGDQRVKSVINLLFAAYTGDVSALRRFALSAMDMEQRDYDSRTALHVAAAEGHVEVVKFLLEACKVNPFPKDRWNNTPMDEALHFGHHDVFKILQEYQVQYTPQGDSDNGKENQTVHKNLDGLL

Homo sapiens = species on record: Homo sapiens; assay: Selectivity ratio of IC50 for GLS2 (unknown origin) to IC50 for GLS1 (unknown origin)
[23] = human, microsomes
Description: Metabolic stability in human liver microsome assessed as intrinsic clearance

in vitro = conditions: human, liver microsomes
[24] = molecular target: T2, Glutaminase liver isoform, mitochondrial (Homo sapiens, UniProt Q9UI32); assay: Inhibition of GLS2 (unknown origin)
T2 sequence (Q9UI32 whole entry): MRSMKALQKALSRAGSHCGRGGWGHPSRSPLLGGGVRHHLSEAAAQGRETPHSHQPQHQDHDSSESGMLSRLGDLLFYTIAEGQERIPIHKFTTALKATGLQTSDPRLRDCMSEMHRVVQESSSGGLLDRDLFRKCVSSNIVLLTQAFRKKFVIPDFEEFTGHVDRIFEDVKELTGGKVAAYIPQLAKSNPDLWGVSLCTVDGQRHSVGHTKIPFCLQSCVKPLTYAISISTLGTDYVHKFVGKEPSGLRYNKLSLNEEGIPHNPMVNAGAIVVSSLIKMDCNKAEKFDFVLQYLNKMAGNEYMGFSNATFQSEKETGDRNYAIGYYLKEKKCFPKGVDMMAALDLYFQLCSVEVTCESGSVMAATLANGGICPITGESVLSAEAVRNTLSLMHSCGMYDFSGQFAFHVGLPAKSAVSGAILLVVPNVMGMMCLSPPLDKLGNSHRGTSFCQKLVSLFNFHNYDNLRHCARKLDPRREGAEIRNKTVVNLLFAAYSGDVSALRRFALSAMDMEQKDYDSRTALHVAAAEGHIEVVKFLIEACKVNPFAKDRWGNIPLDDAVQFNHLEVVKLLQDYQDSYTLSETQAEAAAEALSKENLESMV

A549 [25] = assay: Inhibition of glutaminase in human A549 cells assessed as ratio of glutamine to glutamate level (Rv b= 0.45 +/- 0.011); type: cell-based
A549 [26] = assay: Potency index, ratio of BPTES IC50 to test compound IC50 for antiproliferative activity against human A549 cells; type: functional
HCT-116 [27] = assay: Potency index, ratio of BPTES IC50 to test compound IC50 for antiproliferative activity against human HCT-116 cells; type: functional
[28] = molecular target: T3, Glutaminase kidney isoform, mitochondrial (Homo sapiens) (UniProt O94925); assay: Potency index, ratio of BPTES IC50 to test compound IC50 for inhibition of GLS1 (unknown origin)
T3 sequence (whole entry): T1 sequence (O94925 whole entry)

Compound	IC50 (A549 [5]) [nM]	IC50 (HCT-116 [15]) [nM]	IC50 [22] [nM]	Ratio IC50 (Homo sapiens)	CLH [23] [g/mL/min]	half-life (in vitro) [h]	IC50 [24] [nM]	Ratio (A549 [25])	other results
O=C(Cc1ccccc1)Nc1nnc(CCSCCc2nnc(NC(=O)Cc3ccccc3)s2)s1	49000	44000							AUC(0-t) [1]: 2090 ng·h/mL; Activity (A549 [2]): 11.666%; inhibition (A549 [3]): Active; bioavailability [4]: 2.3%; inhibition (HCT-116 [6]): Active; Activity (HCT-116 [7]): Active; Activity (A549 [8]): 15.055%; AUCt [9]: 543.3 ng·h/mL; Activity (HCT-116 [10]): 22.3%; Activity (A549 [11]): 14.31%; half-life (in vivo [12]): 3.8 h; Cmax [13]: 493 ng/mL; Activity (A549 [14]): 18.8%; AUC(0-t) [16]: 12.5 ng·h/mL; Activity (A549 [17]): 15.403%; Activity (A549 [18]): 9.331%; Cmax [19]: 17.8 ng/mL; Activity (A549 [20]): 8.746%; half-life (in vivo [21]): 2.6 h
C=CCCC(=O)N1CCC(CNC(=O)c2ccc(COCCC3CCN(c4nnc(NC(=O)Cc5ccccc5)s4)CC3)cc2)CC1	1360	2070	268						inhibition (A549 [3]): Active; inhibition (HCT-116 [6]): Active
CN1CCN(c2cccc(NC(=O)c3ccc(COCCC4CCN(c5nnc(NC(=O)Cc6ccccc6)s5)CC4)cc3)c2)CC1	650	260	62	> 100	35.8	> 2	> 15000	0.74	
CCCCCCN1CCC(CNC(=O)c2ccc(COCCC3CCN(c4nnc(NC(=O)Cc5ccccc5)s4)CC3)cc2)CC1	740	340	88	> 100	22.3	> 2	> 15000	1.42	
CN1CCN(c2ccc(C(=O)Nc3ccc(CN4CCN(c5nnc(NC(=O)Cc6ccccc6)s5)CC4)cc3)cc2)CC1	760	530	66	> 100	56.4	1.12	> 15000	0.8	
CN1CCC(CNC(=O)c2ccc(COCCC3CCN(c4nnc(NC(=O)Cc5ccccc5)s4)CC3)cc2)CC1	2310	1510	320						Ratio IC50 (A549 [26]): 20; Ratio IC50 (HCT-116 [27]): 20
CN1CCN(c2cccc(NC(=O)c3cccc(CN4CCN(c5nnc(NC(=O)Cc6ccccc6)s5)CC4)c3)c2)CC1	870	1130	65	> 100	21.2	> 2	> 15000	1.17	inhibition (A549 [3]): Active; inhibition (HCT-116 [6]): Active
CN1CCN(c2cccc(NC(=O)c3ccc(CN4CCN(c5nnc(NC(=O)Cc6ccccc6)s5)CC4)cc3)c2)CC1	970	520	79	> 100	60.3	1.04	> 15000	1.1	
Cc1ccccc1CN1CCC(CNC(=O)c2cccc(COCCC3CCN(c4nnc(NC(=O)Cc5ccccc5)s4)CC3)c2)CC1	980	550	85	> 100	46.8	> 2	> 15000	1.49	inhibition (A549 [3]): Active; inhibition (HCT-116 [6]): Active; Ratio IC50 [28]: 50
CCCNC(=O)c1ccc(COCCC2CCN(c3nnc(NC(=O)Cc4ccccc4)s3)CC2)cc1	3450	2890	420						
CN1CCN(c2ccc(C(=O)Nc3cccc(CN4CCN(c5nnc(NC(=O)Cc6ccccc6)s5)CC4)c3)cc2)CC1	1050	1530	89						
CCCN1CCC(CNC(=O)c2cccc(COCCC3CCN(c4nnc(NC(=O)Cc5ccccc5)s4)CC3)c2)CC1	2010	3920	260						
CCCN1CCC(CNC(=O)c2ccc(COCCC3CCN(c4nnc(NC(=O)Cc5ccccc5)s4)CC3)cc2)CC1	1320	1690	290						Ratio IC50 (A549 [26]): 20; Ratio IC50 (HCT-116 [27]): 20
Cc1ccc(NC(=O)c2ccc(CN3CCN(c4nnc(NC(=O)Cc5ccccc5)s4)CC3)cc2)cc1	1680	1080	212						
CCNCCNC(=O)c1ccc(CN2CCN(c3nnc(NC(=O)Cc4ccccc4)s3)CC2)cc1	2260	1280	221						
O=C(Cc1ccccc1)Nc1nnc(N2CCC(CCOCc3cccc(C(=O)NCCN4CCCCC4)c3)CC2)s1	8520	7050	555						
